Tests used:
Type in all cases: cell-based
[1] = tested on: SARS-CoV-2 (B.1.1.529) BA.1 mutant strains; assay: Antiviral activity at the cellular level by RT-qPCR in Vero E6-TMPRSS2 cells
[2] = tested on: SARS-CoV-2 Beta (B.1.351) mutant strains; assay: Antiviral activity by plaque method in Vero E6-TMPRSS2 cells: SARS-CoV-2 Beta
[3] = tested on: SARS-CoV-2 Alpha (B.1.1.7) mutant strains; assay: Antiviral activity by plaque method in Vero E6-TMPRSS2 cells: SARS-CoV-2 Alpha

SMILES	inhibitory activity on replication of SARS-CoV-2 (B.1.1.529) in Vero E6-TMPRSS2 cells (in words) [1]	anti-viral activity, times higher than Nirmatrelvir (PF-07321332) [2] [times]	anti-viral activity, times higher than Nirmatrelvir (PF-07321332) [3] [times]
COC[C@@H](NC(=O)C1CCC(F)(F)CC1)C(=O)N[C@H](Cc1ccccc1)C(=O)C(=O)NCc1nccs1 [Compound 395]	better inhibitory activity		
COC[C@@H](NC(=O)C1CCCC(F)(F)C1)C(=O)N[C@H](Cc1ccccc1)C(=O)C(=O)NCc1nccs1 (stereo partly drawn) [Compound 398, N—((R)-1-(((R)-3,4-dioxo-1-phenyl-4-((thiazole-2-ylmethyl)amino)butan-2-yl)amino)-3-methoxy-1-oxopropan-2-yl)-3,3-difluorocyclohexane-1-formamide]	better inhibitory activity	10.16	40.95

Reference: patent US20250064789A1, “KETOAMIDE DERIVATIVES AND PHARMACEUTICAL USES THEREOF” (priority 2022, published 2025)
